Read-outs that look alike come from different tables or passages of the source.

Experiment [1] has as its system alcohol dehydrogenase from R. erythropolis. Nature of the experiment: Preparative reduction of keto-compounds with ADH and formate dehydrogenase regeneration, chiral GC. In kind it is biochemical, Rhodococcus erythropolis. Particulars: for Conversion after 10 min [%]: 10 mM keto-compound, 0.5 U/ml alcohol dehydrogenase; for ee [%] of the product: enzymatic reduction, chiral GC. Here is the method: The product is analysed by means of gas chromatography, wherein the stationary phase in the GC column is capable of separating enantiomeric alcohols so that information on the ee values of the enzymatically prepared product can be obtained.
Such a mixture for reduction contains: • 10 mM keto-compound • 0.5 mM NAD • 100 mM Na formate • 1 U/ml formate dehydrogenase
At the times 0, 5 min and 10 min, samples are taken (100 μl), extracted with 100 μl of chloroform and the chloroform phase is analysed using gas chromatography.
Column: CP-Chirasil-DEX CB length: 25 m, diameter: 25 μm (Chrompack). Temperature programme: 5 min at 60° C., then 5° C./min up to 190° C. (for hexanone/hexanol: 30 min at 60° C., then 10° C./min to 195° C.). Column flow 1.3 ml/min; gas:helium
p-Cl-acetophenone, acetophenone, ethyl 2-oxobutyrate, 2-hexanone and 2-heptanone.

For experiment [2], the system named is aldehyde reductase from Corynebacterium sp. Particulars: cited from earlier work; for relative activity: phenylacetaldehyde = 100%.
Experiment [3] concerns alcohol dehydrogenase from R. erythropolis (RE-ADH, new ADH expr. in E. coli). The experiment is described as follows: Relative/specific activity of substrates with the new ADH from R. erythropolis (photometric NADH test). It is filed as biochemical, Rhodococcus erythropolis. Particulars: for Relative activity [%]: relative to acetophenone = 100. How it is done:
In this case, as is normal, the measured activity for one compound is set at 100% and the activity/activities of the other compound(s) is determined in relation thereto. From the relative activities when compared with other substrates, it can then be recognised whether such another substrate is accepted to a greater or lesser extent.
A first purification can be achieved by anion exchange chromatography (MonoQ-Material, Pharmacia) (mobile buffer: 50 mM TEA buffer, pH 7.0; elution with a NaCl gradient of 0-1 M).
For the activity test, the cells were harvested (15 min centrifuging at 14000 rpm, 4° C.) and degraded after resuspension with 100 mM KPi buffer, pH 6.0 (1.5 ml of buffer per 1 g of cells). For the purposes of degradation, the suspension was treated with ultrasound (2×30 sec. power 100%, pulse 50), then the cell broth was centrifuged. The supernatant liquid is the soluble crude extract, the sediment is the insoluble fraction.
For a comparison using relative activities, the activity of the two enzymes was given with respect to phenylacetaldehyde=100%.
In this case, the relative activity is given with respect to the activity measured for acetophenone.

Experiment [4] has as its system ADH in accordance with J. Peters, Dissertation. Particulars: cited from earlier work.
For experiment [5], the system named is ADH in accordance with DE 4209022. Particulars: cited from earlier work.
Where [6] appears, read: relative to 2-heptanone = 100%, listed as 2-decanone.
The mark [7] stands for this setting: relative to 2-heptanone = 100%, listed as drawing 11.
Setting [8] is: relative to methyl acetoacetate = 100%.
Where [9] appears, read: relative to 2-heptanone = 100%, listed as 2-heptanone.
Setting [10] is: relative to 2-heptanone = 100%, listed as drawing 10.
[11] abbreviates: relative to 2-heptanone = 100%, listed as drawing 12.
[12] abbreviates: relative to 2-heptanone = 100%, listed as phenoxyacetone.
Where [13] appears, read: relative to p-fluoroacetophenone = 100%, listed as drawing 5.
Where [14] appears, read: relative to p-fluoroacetophenone = 100%, listed as p-methoxyacetophenone.
[15] abbreviates: relative to p-methylacetophenone = 100%.

In the case of `CCCCC(C)=O` [2-hexanone], in experiment [1], the “Conversion after 10 min [%]” value was >95% and the “ee [%] of the product” value is given as >99%.

In the case of `CC(=O)c1ccccc1` [Acetophenone], the “activity for acetophenone reduction” value in experiment [2] (homogeneous enzyme) is 22.4 U/mg; in experiment [3] (homogeneous enzyme), 348 U/mg. The relative activity in experiment [2] is on record as 35%; in experiment [3] (phenylacetaldehyde = 100%), 87%. The “activity of Rhodococcus ADH compared with the Corynebacterium enzyme” value in experiment [3] (highly purified enzymes, towards acetophenone) is on record as “about 15 times”. The “Relative activity [%]” value in experiment [3] came to 100%. Further, the “Conversion after 10 min [%]” value in experiment [1] is >95%. Moreover, the “ee [%] of the product” value in experiment [1] is given as >99%.

In the case of `CCCCCCCCC(C)=O` [Decan-2-one, 2-decanone], the relative activity in experiment [4] (setting [6]) is 79%; in experiment [4] (setting [7]) it was 79%; in experiment [3] (setting [6]), 76%; in experiment [3] (setting [7]), 76%. Besides, the “Relative activity [%]” value in experiment [3] came out at 2521%.

As for `CCOC(=O)C(=O)CC` [Ethyl 2-oxobutyrate, ethyl 2-oxobutyrate], in experiment [1], the “Conversion after 10 min [%]” value is on record as >95% and the “ee [%] of the product” value is recorded as >99%.

`CCOC(=O)CC(C)=O` [Ethyl acetoacetate]: the relative activity in experiment [4] (setting [8]) is 250%; in experiment [4] (relative to methyl acetoacetate = 100%, listed as β-ketoethyl esters) it was 250%; in experiment [3] (setting [8]), 773%; in experiment [3] (relative to methyl acetoacetate = 100%, listed as β-ketoethyl ester) it was 773%. In addition, the “Relative activity [%]” value in experiment [3] worked out at 1020%.

As for `CCCCCC(C)=O` [Heptan-2-one, 2-heptanone], the relative activity in experiment [4] (setting [9]), in experiment [4] (setting [10]), in experiment [3] (setting [9]) and in experiment [3] (setting [10]) was 100% throughout. For the same compound, in experiment [3], the “Relative activity [%]” value stood at 3328%. Further, in experiment [1], the “Conversion after 10 min [%]” value is listed as >95%. Also, in experiment [1], the “ee [%] of the product” value was >99%.

`COC(=O)CC(C)=O` [Methyl acetoacetate, methyl acetoacetate]: the relative activity in experiment [4] (setting [8]) was 100%; in experiment [3] (setting [8]), 100%; in experiment [3] (relative to methyl acetoacetate = 100%, listed as methyl ester) it was 100%. The “Relative activity [%]” value in experiment [3] is listed as 134%.

`CC(=O)COc1ccccc1` [Phenoxyacetone, phenoxyacetone]: the relative activity in experiment [4] (setting [11]) was 71%; in experiment [4] (setting [12]), 71%; in experiment [3] (setting [11]), 126%; in experiment [3] (setting [12]), 126%. Moreover, the “Relative activity [%]” value in experiment [3] turned out to be 4180%.

On to `O=CCc1ccccc1` [Phenylacetaldehyde], for which the relative activity in experiment [2] and in experiment [3] (phenylacetaldehyde = 100%) was 100% in each case.

Consider `CCCCC=O` [Valeraldehyde], for which the relative activity in experiment [2] is recorded as 181%; in experiment [3] (phenylacetaldehyde = 100%), 433%.

Consider `CC(=O)c1cccc(Cl)c1` [m-Cl-acetophenone], for which the “Relative activity [%]” value in experiment [3] was 2384%.

`CC(=O)c1ccc(F)cc1` [p-F-acetophenone, p-fluoroacetophenone]: in experiment [3], the “Relative activity [%]” value stood at 194%. Also, the relative activity is 100% in experiment [3] (relative to p-fluoroacetophenone = 100%); 100% in experiment [5] (relative to p-fluoroacetophenone = 100%, listed as drawing 6); 100% in experiment [5] (relative to p-fluoroacetophenone = 100%, listed as p-fluoroacetophenone).

As for `COc1ccc(C(C)=O)cc1` [p-methoxy-acetophenone, p-methoxyacetophenone], the “Relative activity [%]” value in experiment [3] was 232%. In addition, the relative activity in experiment [3] (setting [13]) is recorded as 195%; in experiment [3] (setting [14]), 195%; in experiment [5] (setting [13]) it was 90%; in experiment [5] (setting [14]), 90%.

On to `CC(=O)c1ccc(C)cc1` [p-methyl-acetophenone, p-methylacetophenone], for which the “Relative activity [%]” value in experiment [3] is listed as 640%. For the same compound, the relative activity in experiment [3] (setting [15]) and in experiment [5] (setting [15]) was 100% in each case.

The record behind these values is patent US7341859B2, “ADH from Rhodococcus erythropolis” (Degussa AG, priority 2002, dated 2008).
